For experiment [1], the system named is lung tumors of LSL-K-rasG12D;p53Fl/Fl mice. The experiment is described as follows: Lung tumor burden by micro-CT in LSL-K-rasG12D;p53Fl/Fl mice. To be noted: FIG. 3C. It counts as in vivo, mouse. On the procedure:
(§1) LSL-K-ras^G12D;p53^F1/+ were infected with Adeno-Cre virus and allowed to age for 16 weeks post-tumor induction. Baseline CT scans were performed at 16 weeks post-tumor induction (day 0 of study) and mice were grouped such that average starting tumor volume per group were equal. Mice were dosed once a week for three weeks with cisplatin (7 mg/kg) or phosphate-buffered saline, and bi-weekly with HER4ECD-Fc (25 mg/kg) or anti-ragweed IgG2A (25 mg/kg) for the duration of the study. Serial CT scans were performed at days 14, 45, and 66.
(§2) Two micro-CT systems (vivaCT 40 and vivaCT 75, Scanco Medical, Switzerland) were utilized for longitudinal lung imaging. Animals were randomized between micro-CT systems and rescanned on the same system used for baseline imaging. […] The imaging data were evaluated in the coronal plane using the image analysis software package Analyze (AnalyzeDirect, Inc., Lenexa, Kans., USA). Once the largest cross-sectional plane of each tumor was identified, estimates of maximal tumor diameter (d1) and the largest perpendicular diameter (d2) were determined. The total tumor burden was calculated as the sum of the cross-product of the directional estimates (d1×d2) of all the tumors.
A second study was carried out in LSL-K-ras^G12D;p53^F1/F1 mice as described above. […] Combination activity was assessed using an unpaired t-test against its monotherapy * p<0.05, ** p<0.01.

In the next experiment the test system is NRG1/HER3 signaling. In words: HER4-ECD on serum starved LKPH1 and LKPH2 cells, p-HER3 Western blot. It counts as cell-based, mouse. On the procedure: To induce shRNA expression, stable cell lines harboring doxcycline-inducible shNRG1 or shLuciferase were grown in 1 ug/ml doxcycline for a total of 6 days. The first day of induction cells were grown in 10% FBS, followed by a titration of FBS over the course of 4 more days. The cells were then completely serum starved during the last 6 hours of growth. Cells were then processed for RNA extraction or western blotting. For HER4ECD studies in mouse lung tumor cell lines, LKPH cells were grown in serum starved conditions for 24 hours prior to addition of HER4ECD at a concentration of 2 mg/ml. LKPH cells were then incubated for another 48 hours prior to processing for Western blotting. Addition of exogenous NRG1 on H441 cells were performed as follows: H441 cells were serum starved for 18 hours prior to addition of 1 uM recombinant human NRG1 beta-1 extracellular domain (R&D systems) or 1 uM anti-ragweed IgG2A as the control. Ten minutes after addition of NRG1 or ragweed, cells were processed for Western blotting.
To test the role of NRG1 signaling in promoting relapse after chemotherapy in the LSL-K-ras^G12D;p53^F1/+ mouse model, a ligand-trap approach to sequester NRG1 and prevent its binding to receptors in vivo was employed. A fusion of the human HER4 extracellular domain (HER4-ECD) fused to murine IgG2A Fc was generated. […]
Background: Immunoblotting shows a protein as a band on a membrane.

Experiment [2] relates to lung tumors of LSL-K-rasG12D;p53Fl/+ mice. In words: Lung tumor burden by micro-CT in LSL-K-rasG12D;p53Fl/+ mice. It counts as in vivo, mouse. To be noted: FIG. 3A-B. On the procedure: as §1
as §2, with “tumors. […]” for “tumors.”

The test system of experiment [3] is Calu3-shNRG1 xenograft tumors. In words: Calu3-shNRG1 xenograft, NRG1 knockdown +/- chemotherapy. To be noted: dox induces NRG1 knockdown, chemotherapy paclitaxel + cisplatin. It counts as in vivo, human. On the procedure: Tumor cells (10-20 million) were transplanted into right flank of athymic nude mice. When tumor size reached ˜200 mm^3, the mice were divided into different treatment groups. Mice were then treated with either vehicle or chemotherapy (paclitaxel, i.v.+cisplatin, i.p.) for the initial studies. The chemotherapy dosing regimen was paclitaxel 20 mg/kg i.v. every other day for 5 doses and cisplatin 5 mg/kg i.p. on days 1 and 7 for the Calu3 model and days 1 and 14 for the H441 model. Regressed tumors and time matched vehicle controls were collected at least 1 week after the last dose of chemo. Tumors were dissociated using dispase/collagenase and samples were FACS sorted to collect the GFP positive tumor cells. For the NRG1 knockdown studies, the treatment groups were: sucrose, doxycycline (dox), chemotherapy+sucrose, and chemotherapy+doxycycline. […]
To determine the efficacy of NRG1-targeting in the Calu3 model, Calu3-shNRG1 tumor bearing mice were assigned to four groups; 1) vehicle+sucrose, 2) vehicle+dox, 3) chemotherapy+sucrose, and 4) chemotherapy+dox. […] Tumor volume was measured twice a week for the duration of the study.
The effect of NRG1 on tumor relapse was assessed by comparing the growth of tumors in the chemotherapy+sucrose with those in the chemotherapy+dox group. […] Therefore, the measured volumes were considerably larger than the actual tumor volume in the dox-treated groups. […]
Background: A xenograft is tissue or cells of one species grown in another, often human tumour cells in immunodeficient mice.

Experiment [4] has as its system Calu3-shHER3 xenograft tumors. In words: Calu3-shHER3 xenograft. To be noted: Calu3-shHER3, dox 2 gm/L in drinking water. It counts as in vivo, human. On the procedure: To confirm this role in vivo, studies using Calu3-shHER3 and Calu3-shHER4 xenograft models treated with either sucrose or dox were performed. Mice with established Calu3-shHER3 or Calu3-shHer4 xenograft tumors were administered vehicle (sucrose) or dox (2 gm/L) in their drinking water ad libitum (n=14/group).

For the next experiment, the system named is HRG1β. In words: Competition assay with 538.24.17 for HRG1β. It counts as binding. The note with it: FIG. 12. On the procedure: (§3) A competition assay was performed to determine the binding specificity of the 526.09 and 526.02 antibodies.
A further experiment deals with T1, NRG1β (Homo sapiens, UniProt Q02297).
T1 sequence (Q02297 177-244 isoform Q02297-6 limits assumed): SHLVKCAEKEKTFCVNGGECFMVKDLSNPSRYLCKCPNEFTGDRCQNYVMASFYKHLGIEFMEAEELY
The experiment is described as follows: Inhibition of 125I-HRG (NRG1β) binding to HER3-ECD-Fc. The note with it: parental anti-NRG1 antibodies, FIG. 6. On the procedure:
The antibodies were tested for their ability to inhibit NRG1β binding to HER3-Fc. 125I-HRG was generated at Genentech as described previously (Sliwkowski et al JBC 1994). Binding assays were performed in Nunc break-apart strip wells (Thermo-Fisher Scientific, Rochester, N.Y.). Plates were coated at 4° C. overnight with 250 ng/well of HER3-ECD-Fc fusion protein in carbonate buffer (pH 9.6). Plates were rinsed twice with wash buffer (PBS/0.05% Tween 20) and blocked with 100 μL PBS including 1% bovine serum albumin (BSA) for 30 minutes. Increasing concentrations of anti-NRG1 antibodies in RPMI 1640 medium (Invitrogen; Carlsbad, Calif.) with 0.2% BSA were pre-bound to HER3-ECD-Fc. 125I-HRG (specific activity: 266 mCi/mg, 75,000 cpm/well) was added immediately after in a total assay volume of 130 μL. Plates were incubated for 2 hours at room temperature, rinsed twice, and individual wells were counted using a 100 Series Iso Data γ-counter. Samples were assayed in triplicates. Plotting was performed using KaleidaGraph 3.6 software. […]
The affinity matured variants were tested for their ability to block HRGβ binding to HER3-Fc. […] Plates were incubated for 2 hours at room temperature, rinsed twice, and individual wells were counted using a 100 Series Iso Data γ-counter. […]

Another experiment has as its target T2, HRG1a (Homo sapiens, UniProt Q02297).
T2 sequence (Q02297 177-241): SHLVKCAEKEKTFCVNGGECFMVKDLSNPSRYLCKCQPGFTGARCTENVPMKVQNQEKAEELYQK
The experiment is described as follows: Competition assay with 538.24.17 for HRG1a. It counts as binding. To be noted: FIG. 12. On the procedure: as §3

As to “HER4-ECD: fusion of the human HER4 extracellular domain to murine IgG2A Fc, ligand trap to sequester NRG1”, the “tumor burden by micro-CT on day 28” value in experiment [1] is on record as “no effect”. In the experiment with NRG1/HER3 signaling, the p-HER3 levels entry is recorded as “diminished”.
Consider `N.N.[Cl][Pt][Cl]` [cisplatin], for which the “tumor growth (average tumor burden and tumor growth rate)” value in experiment [2] is given as “not significantly different”.
Regarding `C[C@H]1c2cccc(O)c2C(O)=C2C(=O)[C@]3(O)C(O)=C(C(N)=O)C(=O)[C@@H](N(C)C)[C@@H]3[C@@H](O)[C@@H]21` [vehicle+dox], the “tumor volume doubling time (TDT)” value in experiment [3] worked out at 44.5 days.
On to `C[C@H]1c2cccc(O)c2C(=O)C2=C(O)[C@]3(O)C(=O)C(C(N)=O)=C(O)[C@@H](N(C)C)[C@@H]3[C@@H](O)[C@@H]21` [dox, doxycycline], for which the “tumor volume doubling time (TDT)” value in experiment [4] is reported as 19 days.

B1: 526.90: parental anti-NRG1 antibody; VH SEQ ID NO: 52, VL SEQ ID NO: 53 (antibody, V domains shown)
VH: EVQLVESGGGLVQPGGSLRLSCAASGFTFSGNAMSWVRQAPGKGLEWVSWIYPSGGNTYYADSVKGRFTISADTSKNTAYLQMNSLRAEDTAVYYCARSYILSYPSITWAFDYWGQGTLVTVSS
VL: DIQMTQSPSSLSASVGDRVTITCRASQSISSYLAWYQQKPGKAPKLLIYGASSRASGVPSRFSGSGSGTDFTLTISSLQPEDFATYYCQQSYSTPITFGQGTKVEIKR
modifications: Heavy chain variable region; Light chain variable region
As for B1, the “competition with 538.24.17 for HRG1β” value in the experiment with HRG1β is “competes”. Further, in the experiment with NRG1β, the “dose-dependent inhibition of NRGβ binding to HER3-Fc” value is recorded as “most potent blockers”. Also, the “competition with 538.24.17 for HRG1a” value with HRG1a is reported as “competes”.

Source of the values: US20140363438A1, “NEUREGULIN ANTIBODIES AND USES THEREOF” (Genentech, Inc., priority 2011, published 2014).
